Test results from patent US4005217A, “Treatment of helminth infections with substituted phenyl-thiourea derivatives” (May & Baker Limited, priority 1970, dated 1977).
Values after ≈ are worked out from the molar mass of the structure shown. Counter-ions that a name gives are not always drawn.

What was measured:
[1] = tested on: Nippostrongylus brasiliensis eggs; test: In vitro activity against roundworms (egg hatching and larvae); assay type: cell-based; settings: 96 h, tested at 100, 10, 1 and 0.1 μg/ml, inhibited or delayed hatching of eggs, or killed, retarded growth or reduced activity of larvae during 4 days, read-out: M.I.C. (minimum inhibitory concentration)
Description: Compounds of formula I were tested at concentrations of 100 μg/ml, 10 μg/ml, 1 μg/ml and 0.1 μg/ml in small glass containers. If the compound was not soluble in water, a volatile organic medium, e.g. acetone, chloroform, ethanol or methanol was used. An amount of material appropriate for each final concentration was measured and placed in duplicate test containers and if an organic solvent was used it was allowed to evaporate completely. Nippostrongylus brasiliensis eggs were recovered by saturated saline centrifugal flotation from the faeces of rats heavily infected with third stage larvae six days previously. They were washed several times in water and suspended in water in a suitable concentration. From 25-50 eggs were placed in each container and the final volume was made up by the addition of a very dilute aqueous suspension of mouse faeces which served as the growth medium. The minimum inhibitory concentrations of each compound (M.I.C.), shown in the following Table V was the minimum concentration in μg/ml total liquid volume at which it inhibited or delayed hatching of eggs, or at which it killed, retarded growth or reduced activity of larvae during the 4 days after beginning the test.

[2] = tested on: influenza virus type A2 /Hong Kong/5/68; assay type: in vivo; settings: mice, 250 mg/kg oral 3 hours before and 1 hour after infection; pooled lungs 24 hours after infection; greatest dilution producing agglutination
[3] = tested on: Nippostrongylus brasiliensis; test: Test 2: activity against roundworms in rats, treatment 24 hours after infection, worm counts 6 days after dosing; assay type: in vivo; settings: rats; for inhibition in vivo at 1000 mg/kg / worm damage: Test 2, 1000 mg/kg oral
Description: Test 2 -- Rats were infected with 100 Nippostrongylus brasiliensis larvae each, by the subcutaneous route. After 24 hours the rats were randomised and allotted to groups of 5 animals each, ready for treatment. Doses of the test compound were then administered to each group by the oral, subcutaneous and intraperitoneal routes respectively, one group of 10 animals being left untreated as a control. All the rats were killed for post-mortem worm counts 6 days after dosing. The activities, expressed in terms of the percentage reductions in mean worm load of the treated groups or damage to the worms compared with the untreated control group, are given below in Table I.

[4] = tested on: Nippostrongylus brasiliensis; test: Test 1: activity against roundworms in rats, treatment 6 days after infection (patent infection), worm counts 48 hours after treatment; assay type: in vivo
Description: Test 1 - Rats were infected with 100 Nippostrongylus brasiliensis larvae each, by the subcutaneous route. After 6 days, when the infection was patent, the rats were randomised and alloted to groups of 10 animals each, ready for treatment. One group was used for each dose level of the test compound and, in each experiment, one group was left untreated as a control. All the rats were killed for post-mortem worm counts 48 hours after treatment. The activity, expressed in terms of the percentage reduction in mean worm load of the treated group compared with the untreated group, is shown in Table I.

[5] = tested on: Trichostrongylus colubriformis; test: Activity against mature adult stages in lambs, oral treatment (Table III); assay type: in vivo; settings: 120 h, 15 mg/kg oral, read-out: Mean percentage reduction in worm burdens, T.colubriformis
Description: (§1) ii. 20 Worm-free lambs were each infected with H. contortus (approximately 5,600), T. axei (approximately 9,300) and T. colubriformis (approximately 10,000) infective larvae. After 22 days, 16 lambs were treated orally with 15 mg/kg animal body weight of the 8 test compounds, i.e. 2 lambs per compound, against the mature adult stages of the worms. 27 Days after infection, all 20 lambs were killed for post-mortem worm counts and the burden of each worm species in the 16 treated animals compared with those in the remaining 4 untreated control animals.

Haemonchus contortus [6] = test: as above; assay type: in vivo; settings: 120 h, 15 mg/kg oral, read-out: Mean percentage reduction in worm burdens, H.contortus
Description: as §1

Trichostrongylus axei [7] = test: as above; assay type: in vivo; settings: 120 h, 15 mg/kg oral, read-out: Mean percentage reduction in worm burdens, T.axei
Description: as §1

[8] = tested on: Trichostrongylus colubriformis; test: Activity against 4th larval stages in lambs, oral treatment (Table II); assay type: in vivo; settings: 100 mg/kg oral
Description: (§2) i. 9 Worm-free lambs were each infected with H.contortus (approximately 9,000), T. axei (approximately 7,000) and T. colubriformis (approximately 12,000) infective larvae. After 7 days, 4 lambs were treated orally with 100 mg/kg animal body weight of the 2 test compounds, i.e. 2 lambs per compound, against the 4th larval stages of the worms. 23 Days after infection, all 9 lambs were killed for post-mortem worm counts and the burdens of each worm species in the 4 treated animals compared with those in the remaining 5 untreated control animals.

Haemonchus contortus [9] = test: as above; assay type: in vivo; settings: 100 mg/kg oral
Description: as §2

Trichostrongylus axei [10] = test: as above; assay type: in vivo; settings: 100 mg/kg oral
Description: as §2

[11] = tested on: naturally acquired strongyle infections; test: Effect on faecal egg output in naturally infected sheep (ewes); assay type: in vivo, O. circumcincta, H. contortus and Cooperia spp.; settings: 50 mg/kg oral
Description: Faecal material from sheep with naturally acquired strongyle infections was incubated for 7 days at 27° C. followed by identification of the infective larvae present. Amongst those species present were O. circumcincta, H. contortus and Cooperia spp.
Egg counts were carried out on individual samples of faeces taken from the animals two and one day previous to dosings.
Egg counts were made using the McMaster technique. If a count by this technique was negative, a positive/negative egg flotation determination was made.
A group of 3 ewes was treated orally with 50 mg/kg animal body weight of test compound and further egg counts made at intervals for 3 weeks after treatment.

[12] = Nippostrongylus brasiliensis, 144 h, read-out: Percentage reduction in N.brasiliensis load
[13] = Nippostrongylus brasiliensis, po, 48 h, Test 1, 1000 mg/kg oral, read-out: Percentage reduction in N.brasiliensis load

Compound: Nc1ccccc1NC(=S)NC(=O)OCCCl [1-(2-chloroethoxycarbonyl)-3-(2-aminophenyl)thiourea]
- MIC [1]: 100 µg/mL (≈ 365 µM)
- Haemagglutinin titre-treated animals [2]: 1/32
- inhibition in vivo at 1000 mg/kg [3, 12]: 96%
- worm damage [3]: worm damage

Compound: CCCCN(C)CC(=O)Nc1ccccc1NC(=S)NC(=O)OCC [1-ethoxycarbonyl-3-(2-N-n-butyl-N-methylaminoacetamidophenyl)thiourea hydrochloride]
- MIC [1]: 1 µg/mL
- inhibition in vivo at 1000 mg/kg [4, 13]: 86%
- worm damage ([4]; Test 1, 1000 mg/kg oral): worm damage
- Haemagglutinin titre-treated animals [2]: 1/4
- inhibition in vivo at 1000 mg/kg [3, 12]: 99%
- worm damage [3]: worm damage

Compound: CCOC(=O)NC(=S)Nc1ccc(F)cc1N [1-ethoxycarbonyl-3-(2-amino-4-fluorophenyl)thiourea]
- MIC [1]: 1 µg/mL (≈ 3.89 µM)
- Haemagglutinin titre-treated animals [2]: 1/32
- inhibition in vivo at 1000 mg/kg [3, 12]: 50%
- worm damage [3]: worm damage

Compound: CCCCc1ccc(NC(=S)NC(=O)OC)c(NC(C)=O)c1 [1-methoxycarbonyl-3-(2-acetamido-4-n-butylphenyl)thiourea]
- inhibition in vivo at 15 mg/kg [5]: 6.7%
- inhibition in vivo at 15 mg/kg (Haemonchus contortus [6]): 76.7%
- inhibition in vivo at 15 mg/kg (Trichostrongylus axei [7]): 66.9%
- MIC [1]: 0.1 µg/mL (≈ 0.309 µM)
- worm damage ([4]; Test 1, 500 mg/kg oral): worm damage
- Mean percentage reduction in worm burdens, T.colubriformis [8]: 100%
- Mean percentage reduction in worm burdens, H.contortus (Haemonchus contortus [9]): 99.9%
- Mean percentage reduction in worm burdens, T.axei (Trichostrongylus axei [10]): 99.5%
- inhibition in vivo at 1000 mg/kg [3, 12]: 98%
- worm damage [3]: worm damage

Compound: COC(=O)NC(=S)Nc1cc(NC(=O)OC(C)C)ccc1NC(C)=O [1-methoxycarbonyl-3-(2-acetamido-5-isopropoxycarbonylaminophenyl)thiourea]
- Haemagglutinin titre-treated animals [2]: 1/128

Compound: CCCCc1ccc(NC(C)=O)c(NC(=S)NC(=O)OC)c1 [1-methoxycarbonyl-3-(2-acetamido-5-n-butylphenyl)thiourea]
- inhibition in vivo at 15 mg/kg [5]: 95%
- inhibition in vivo at 15 mg/kg (Haemonchus contortus [6]): 82.1%
- inhibition in vivo at 15 mg/kg (Trichostrongylus axei [7]): 98.2%
- MIC [1]: 0.1 µg/mL (≈ 0.309 µM)
- worm damage ([4]; Test 1, 1000 mg/kg oral): worm damage
- inhibition in vivo at 1000 mg/kg [3, 12]: 99%
- worm damage [3]: worm damage

Compound: COC(=O)NC(=S)Nc1ccc(NC(=O)OC(C)C)cc1N [1-methoxycarbonyl-3-(2-amino-4-isopropoxycarbonylaminophenyl)thiourea]
- inhibition in vivo at 15 mg/kg [5]: 83%
- inhibition in vivo at 15 mg/kg (Haemonchus contortus [6]): 97.7%
- inhibition in vivo at 15 mg/kg (Trichostrongylus axei [7]): 94.6%
- MIC [1]: 100 µg/mL (≈ 306 µM)
- worm damage ([4]; Test 1, 500 mg/kg oral): worm damage
- inhibition in vivo at 1000 mg/kg [3, 12]: 100%

Compound: COC(=O)NC(=S)Nc1ccc(NC(=O)OC)cc1N [1-methoxycarbonyl-3-(2-amino-4-methoxycarbonylaminophenyl)thiourea]
- MIC [1]: 100 µg/mL (≈ 335 µM)
- inhibition in vivo at 1000 mg/kg [4, 13]: 100%
- Haemagglutinin titre-treated animals [2]: 1/512
- inhibition in vivo at 250 mg/kg ([3]; Nippostrongylus brasiliensis, 144 h, Test 2, 250 mg/kg oral, read-out: Percentage reduction in N.brasiliensis load): 99%
- inhibition in vivo at 500 mg/kg ([3]; Nippostrongylus brasiliensis, 144 h, Test 2, 500 mg/kg oral, read-out: Percentage reduction in N.brasiliensis load): 99%
- inhibition in vivo at 1000 mg/kg [3, 12]: 100%

Compound: CCCCc1ccc(NC(=S)NC(=O)OC)c(N)c1 [1-methoxycarbonyl-3-(2-amino-4-n-butylphenyl)thiourea]
- MIC [1]: 0.1 µg/mL (≈ 0.355 µM)
- inhibition in vivo at 500 mg/kg ([4]; Nippostrongylus brasiliensis, po, 48 h, Test 1, 500 mg/kg oral, read-out: Percentage reduction in N.brasiliensis load): 75%
- worm damage ([4]; Test 1, 500 mg/kg oral): worm damage
- Mean percentage reduction in worm burdens, T.colubriformis [8]: 100%
- Mean percentage reduction in worm burdens, H.contortus (Haemonchus contortus [9]): 100%
- Mean percentage reduction in worm burdens, T.axei (Trichostrongylus axei [10]): 99.5%

Compound: COC(=O)NC(=S)Nc1ccccc1N [1-methoxycarbonyl-3-(2-aminophenyl)thiourea]
- Mean faecal egg count/gm. faeces ([11]; 1 day after treatment): 450 /gm. faeces
- Mean faecal egg count/gm. faeces ([11]; 2 days before treatment (baseline)): 250 /gm. faeces
- Mean faecal egg count/gm. faeces ([11]; 4 days after treatment): 250 /gm. faeces
- Mean faecal egg count/gm. faeces ([11]; 6 days after treatment): 50 /gm. faeces
- Mean faecal egg count/gm. faeces ([11]; 8 days after treatment): 134 /gm. faeces
- Mean faecal egg count/gm. faeces ([11]; 15 days after treatment): 75 /gm. faeces
- Mean faecal egg count/gm. faeces ([11]; 18 days after treatment): 100 /gm. faeces
- Mean faecal egg count/gm. faeces ([11]; 20 days after treatment): 50 /gm. faeces
- Mean faecal egg count/gm. faeces ([11]; 22 days after treatment): 50 /gm. faeces
- MIC [1]: 0.1 µg/mL (≈ 0.444 µM)
- Percentage reduction in N.brasiliensis load ([4]; Test 1, 1000 mg/kg oral): 99%
- worm damage ([4]; Test 1, 1000 mg/kg oral): worm damage

Compound: CCCCc1ccc(NC(=O)C2CC2)c(NC(=S)NC(=O)OC)c1 [1-methoxycarbonyl-3-(2-cyclopropylcarbonamido-5-n-butylphenyl)thiourea]
- MIC [1]: 0.1 µg/mL (≈ 0.286 µM)
- Haemagglutinin titre-treated animals [2]: 1/128

Compound: COC(=O)NC(=S)Nc1ccc(NC(=O)OC(C)C)cc1NC=O [1-methoxycarbonyl-3-(2-formamido-4-isopropoxycarbonylaminophenyl)thiourea]
- inhibition in vivo at 15 mg/kg [5]: 29.6%
- inhibition in vivo at 15 mg/kg (Haemonchus contortus [6]): 40.1%
- inhibition in vivo at 15 mg/kg (Trichostrongylus axei [7]): 70.8%

Compound: COC(=O)NC(=S)Nc1ccccc1NC(=O)C[N+](C)(C)C [1-methoxycarbonyl-3-(2-trimethylammoniumacetamidophenyl)thiourea iodide]
- MIC [1]: 1 µg/mL
- Haemagglutinin titre-treated animals [2]: 1/256
- worm damage [3]: worm damage

Compound: COC(=O)NC(=S)Nc1cc(NC(=O)OC(C)C)ccc1NC=O [1-methoxycarbonyl-3-(2formamido-5-isopropoxycarbonylaminophenyl)thiourea]
- Haemagglutinin titre-treated animals [2]: 1/256

Compound: CCCCc1ccc(NC(=S)NC(=O)OC)c(NC(=O)C2CC2)c1 [1-methoxycarbonyl-3-(4-n-butyl-2-cycloproplycarbonamidophenyl)thiourea]
- inhibition in vivo at 15 mg/kg [5]: 27.1%
- inhibition in vivo at 15 mg/kg (Haemonchus contortus [6]): 58.4%
- inhibition in vivo at 15 mg/kg (Trichostrongylus axei [7]): 57.6%
- MIC [1]: 0.1 µg/mL (≈ 0.286 µM)

Compound: CCCCc1ccc(NC(=S)NC(=O)OC)c(NC=O)c1 [1-methoxycarbonyl-3-(4-n-butyl-2-formamidophenyl)thiourea]
- inhibition in vivo at 15 mg/kg [5]: 36.9%
- inhibition in vivo at 15 mg/kg (Haemonchus contortus [6]): 84.3%
- inhibition in vivo at 15 mg/kg (Trichostrongylus axei [7]): 84.2%
- MIC [1]: 0.1 µg/mL (≈ 0.323 µM)

Compound: CCCCc1ccc(NC(=O)OCC)c(NC(=S)NC(=O)OC)c1 [1-methoxycarbonyl-3-(5-n-butyl-2-ethoxycarbonylaminophenyl)thiourea]
- inhibition in vivo at 15 mg/kg [5]: 40.1%
- inhibition in vivo at 15 mg/kg (Haemonchus contortus [6]): 79.6%
- inhibition in vivo at 15 mg/kg (Trichostrongylus axei [7]): 78.6%
- MIC [1]: 10 µg/mL (≈ 28.3 µM)
- Haemagglutinin titre-treated animals [2]: 1/64
- inhibition in vivo at 1000 mg/kg [3, 12]: 96%
- worm damage [3]: worm damage

Compound: CCCCc1ccc(NC=O)c(NC(=S)NC(=O)OC)c1 [1-methoxycarbonyl-3-(5n-butyl-2-formamidophenyl)thiourea]
- MIC [1]: 0.1 µg/mL (≈ 0.323 µM)
- Haemagglutinin titre-treated animals [2]: 1/32
- inhibition in vivo at 1000 mg/kg [3, 12]: 96%
- worm damage [3]: worm damage
